Measurements as given in ChEMBL document CHEMBL4342522 (J Med Chem, 2020).
Active and inactive are the calls of the source. The rule behind the calls is not given here.

Legend:
SKM-1 [1] = assay: Antitumor activity against human SKM1 cells xenografted in SCID mouse assessed as tumor growth inhibition at 60 mg/kg, po bid by caliper method; format: functional, organism-based
[2] = molecular target: T1, Bromodomain-containing protein 4 (Homo sapiens, UniProt O60885); assay: Inhibition of human N-terminal His6 tagged BRD4 BD2 (352 to 457) residues expressed in Escherichia coli BL21(DE3) cells after 1 hr by TR-FRET assay
[3] = Half life in mouse at 1 mg/kg, iv; format: ADME, organism-based; conditions: in vivo
[4] = Clearance in dog plasma at 0.1 mg/kg, iv; format: ADME, organism-based, Canis lupus familiaris
[5] = Oral bioavailability in rat at 1 mg/kg; format: ADME, organism-based; conditions: in vivo
[6] = Half life in rat at 1 mg/kg, po; format: ADME, organism-based; conditions: in vivo
[7] = Half life in monkey at 0.1 mg/kg, iv; format: ADME, organism-based, Macaca mulatta; conditions: rhesus monkey, in vivo
[8] = AUC in monkey at 0.1 mg/kg, iv; format: ADME, organism-based, Macaca mulatta; conditions: rhesus monkey, in vivo
[9] = AUC in rat at 1 mg/kg, iv; format: ADME, organism-based; conditions: in vivo
[10] = AUC in mouse at 1 mg/kg, po; format: ADME, organism-based; conditions: in vivo
[11] = Half life in mouse at 1 mg/kg, po; format: ADME, organism-based; conditions: in vivo
[12] = Volume of distribution at steady state in dog at 0.1 mg/kg, iv; format: ADME, organism-based, Canis lupus familiaris; conditions: in vivo, read-out: Vdss
[13] = Volume of distribution at steady state in monkey at 0.1 mg/kg, iv; format: ADME, organism-based, Macaca mulatta; conditions: rhesus monkey, in vivo, read-out: Vdss
[14] = AUC in mouse at 1 mg/kg, iv; format: ADME, organism-based; conditions: in vivo
[15] = Unbound hepatic clearance in monkey liver microsomes; format: ADME, Macaca mulatta, Microsome; conditions: rhesus monkey
[16] = Oral bioavailability in mouse at 1 mg/kg; format: ADME, organism-based; conditions: in vivo
[17] = AUC in dog at 0.3 mg/kg, po; format: ADME, organism-based, Canis lupus familiaris; conditions: in vivo
[18] = Unbound hepatic clearance in human liver microsomes; format: ADME, Microsome
[19] = Half life in dog at 0.1 mg/kg, iv; format: ADME, organism-based, Canis lupus familiaris; conditions: in vivo
[20] = Oral bioavailability in dog at 0.3 mg/kg; format: ADME, organism-based, Canis lupus familiaris; conditions: in vivo
[21] = Clearance in monkey plasma at 0.1 mg/kg, iv; format: ADME, organism-based, Macaca mulatta; conditions: rhesus monkey
[22] = Volume of distribution at steady state in mouse at 1 mg/kg, iv; format: ADME, organism-based; conditions: in vivo, read-out: Vdss
[23] = Clearance in rat plasma at 1 mg/kg, iv; format: ADME, organism-based
[24] = Volume of distribution at steady state in rat at 1 mg/kg, iv; format: ADME, organism-based; conditions: in vivo, read-out: Vdss
NCI-H1299 = assay: Antiproliferative activity against human H1299 cells assessed as reduction in cell viability after 5 days by CellTiter-Glo assay; format: functional, cell-based; conditions: NCI-H1299, 120 h
[25] = Unbound hepatic clearance in mouse liver microsomes; format: ADME, Microsome
[26] = Clearance in mouse plasma at 1 mg/kg, iv; format: ADME, organism-based
SKM-1 [27] = assay: Antitumor activity against human SKM1 cells xenografted in SCID mouse assessed as tumor growth inhibition at 1 mg/kg, po qd for 21 days by caliper method; format: functional, organism-based
[28] = AUC in rat at 1 mg/kg, po; format: ADME, organism-based; conditions: in vivo
SKM-1 [29] = assay: Antiproliferative activity against human SKM1 cells assessed as reduction in cell viability after 5 days by CellTiter-Glo assay; format: functional, cell-based; conditions: SKM-1, 120 h
[30] = AUC in dog at 0.1 mg/kg, iv; format: ADME, organism-based, Canis lupus familiaris; conditions: in vivo
[31] = Unbound hepatic clearance in rat liver microsomes; format: ADME, Microsome
[32] = Half life in dog at 0.3 mg/kg, po; format: ADME, organism-based, Canis lupus familiaris; conditions: in vivo
[33] = Permeability in dog MDCK cells by PAMPA; format: ADME, cell-based, Canis lupus familiaris; conditions: read-out: permeability
[34] = molecular target: T1, Bromodomain-containing protein 4; assay: biochemical; format: cell-based
Description: Inhibition of human N-terminal His6 tagged BRD4 BD1 (57 to 168) residues expressed in Escherichia coli BL21(DE3) cells after 1 hr by TR-FRET assay

[35] = Half life in rat at 1 mg/kg, iv; format: ADME, organism-based; conditions: in vivo
[36] = Oral bioavailability in monkey at 0.3 mg/kg; format: ADME, organism-based, Macaca mulatta; conditions: rhesus monkey, in vivo
[37] = Tmax in rat at 1 mg/kg, po; format: ADME, organism-based; conditions: in vivo
[38] = molecular target: T2, Bromodomain testis-specific protein (Homo sapiens, UniProt Q58F21); assay: Inhibition of BRDT BD2 (unknown origin) after 1 hr by TR-FRET assay
[39] = Half life in monkey at 0.3 mg/kg, iv; format: ADME, organism-based, Macaca mulatta; conditions: rhesus monkey, in vivo
[40] = Volume of drug distribution in monkey at 0.3 mg/kg, iv; format: ADME, organism-based, Macaca mulatta; conditions: rhesus monkey, in vivo, read-out: Vdss
[41] = Cmax in rat at 1 mg/kg, po; format: ADME, organism-based; set-up: dose 1 mg/kg, route oral; conditions: in vivo
[42] = Tmax in dog at 1 mg/kg, po; format: ADME, organism-based, Canis lupus familiaris; conditions: in vivo
[43] = molecular target: T2, Bromodomain testis-specific protein; assay: Inhibition of BRDT BD1 (unknown origin) after 1 hr by TR-FRET assay
[44] = AUC in monkey at 0.3 mg/kg, iv; format: ADME, organism-based, Macaca mulatta; conditions: rhesus monkey, in vivo
[45] = Clearance in monkey plasma at 0.3 mg/kg, iv; format: ADME, organism-based, Macaca mulatta; conditions: rhesus monkey
[46] = Fraction of drug absorbed in mouse portal vein in rat at 1 mg/kg, po; format: ADME, organism-based; conditions: in vivo
[47] = Cmax in dog at 1 mg/kg, po; format: ADME, organism-based, Canis lupus familiaris; set-up: dose 1 mg/kg, route oral; conditions: in vivo
[48] = Fraction of drug absorbed in mouse portal vein in monkey at 1 mg/kg, po; format: ADME, organism-based, Macaca mulatta; conditions: rhesus monkey, in vivo
[49] = Fraction of drug absorbed in mouse portal vein in dog at 1 mg/kg, po; format: ADME, organism-based, Canis lupus familiaris; conditions: in vivo
[50] = Half life in monkey at 0.3 mg/kg, po; format: ADME, organism-based, Macaca mulatta; conditions: rhesus monkey, in vivo
[51] = Tmax in mouse at 1 mg/kg, po; format: ADME, organism-based; conditions: in vivo
[52] = Cmax in mouse at 1 mg/kg, po; format: ADME, organism-based; set-up: dose 1 mg/kg, route oral; conditions: in vivo
[53] = Fraction of drug absorbed in mouse portal vein in mouse at 1 mg/kg, po; format: ADME, organism-based; conditions: in vivo
[54] = Tmax in monkey at 1 mg/kg, po; format: ADME, organism-based, Macaca mulatta; conditions: rhesus monkey, in vivo
[55] = Cmax in monkey at 1 mg/kg, po; format: ADME, organism-based, Macaca mulatta; set-up: dose 1 mg/kg, route oral; conditions: rhesus monkey, in vivo
[56] = AUC in monkey at 0.3 mg/kg, po; format: ADME, organism-based, Macaca mulatta; conditions: rhesus monkey, in vivo

With CCS(=O)(=O)Nc1ccc(Oc2ccc(F)cc2F)c(-c2cn(C)c(=O)c3[nH]ccc23)c1 the inhibition (SKM-1 [1]) was “Active”.
Work on CCNC(=O)c1cc2c(-c3cc(S(=O)(=O)CC)ccc3Oc3c(C)cccc3C)cn(C)c(=O)c2[nH]1 yielded a Ki [2] of 1.1 nM, a half-life [3] of 60 min and a clearance [4] of 5.67 mL/min/kg. The bioavailability [5] was 7%, the half-life [6] was 60 min and the half-life [7] was 90 min. For the same compound, the AUC [8] was 89 ng·h/mL, the AUC [9] was 384 ng·h/mL and the AUC [10] was 760 ng·h/mL. For the same compound, the half-life [11] was 60 min, the Vd [12] was 1.7 L/kg and the Vd [13] was 2.3 L/kg. The AUC [14] was 1440 ng·h/mL, the CL free [15] was 32 L/h/kg and the bioavailability [16] was 53%. It also gave an AUC [17] of 644 ng·h/mL, a CL free [18] of 5.4 L/h/kg and a half-life [19] of 222 min. For the same compound, the bioavailability [20] was 74%, the clearance [21] was 20 mL/min/kg and the Vd [22] was 0.8 L/kg. It also gave a clearance [23] of 45.2 mL/min/kg, a Vd [24] of 3.5 L/kg and an IC50 (NCI-H1299) of 450 nM. The CL free [25] was 42 L/h/kg, the clearance [26] was 11.5 mL/min/kg and the inhibition (SKM-1 [27]) was “Active”. For the same compound, the AUC [28] was 27 ng·h/mL, the IC50 (SKM-1 [29]) was 5.2 nM and the AUC [30] was 291 ng·h/mL. For the same compound, the CL free [31] was 64 L/h/kg, the half-life [32] was 18 min and the Papp [33] was 7.68 ×10⁻⁶ cm/s. For the same compound, the Ki [34] was 120 nM, the half-life [35] was 84 min and the bioavailability [36] was 0%.
For CCNC(=O)c1cc2c(-c3cc(C(C)(C)O)ccc3Oc3c(C)cc(F)cc3C)cn(C)c(=O)c2[nH]1 [ABBV-744], the Tmax [37] was 7.5 min, the Ki [38] was 1 nM and the half-life [3] was 180 min. The clearance [4] was 4 mL/min/kg, the bioavailability [5] was 24% and the half-life [6] was 204 min. It also gave a half-life [39] of 120 min, a Vd [40] of 3.4 L/kg and an AUC [9] of 500 ng·h/mL. It also gave a Cmax [41] of 12 ng/mL, a Tmax [42] of 2.8 h and an AUC [10] of 2350 ng·h/mL. It also gave a Ki [43] of 917 nM, a half-life [11] of 168 min and a Vd [12] of 1.5 L/kg. The AUC [44] was 200 ng·h/mL, the AUC [14] was 3800 ng·h/mL and the bioavailability [16] was 58%. The clearance [45] was 25.7 mL/min/kg, the AUC [17] was 1050 ng·h/mL and the CL free [18] was 8.6 L/h/kg. It also gave a half-life [19] of 264 min, a FaFg [46] of 52 and a Cmax [47] of 116 ng/mL. It also gave a bioavailability [20] of 77%, a FaFg [48] of 19 and a Vd [22] of 1.3 L/kg. The FaFg [49] was 87, the clearance [23] was 11.2 mL/min/kg and the half-life [50] was 150 min. For the same compound, the Vd [24] was 5.3 L/kg, the IC50 (NCI-H1299) was 1600 nM and the CL free [25] was 45 L/h/kg. For the same compound, the clearance [26] was 4.83 mL/min/kg, the Tmax [51] was 6 min and the Cmax [52] was 210 ng/mL. For the same compound, the AUC [28] was 120 ng·h/mL, the IC50 (SKM-1 [29]) was 6.7 nM and the AUC [30] was 460 ng·h/mL. The CL free [31] was 12 L/h/kg, the FaFg [53] was 81 and the half-life [32] was 252 min. For the same compound, the Papp [33] was 2 ×10⁻⁶ cm/s, the Tmax [54] was 1.5 h and the Cmax [55] was 5 ng/mL. For the same compound, the half-life [35] was 174 min, the AUC [56] was 14 ng·h/mL and the bioavailability [36] was 7%.
